Data taken from ChEMBL document CHEMBL1144031, “[4-(Phenoxy)pyridin-3-yl]methylamines: a new class of selective noradrenaline reuptake inhibitors” (Bioorg Med Chem Lett, 2008).

Columns and labels:
[1] = target: Sodium-dependent noradrenaline transporter (Homo sapiens, UniProt P23975)
Description: Inhibition of [3H]Nisoxetine uptake in human noradrenaline transporter transfected HEK293 cells

[2] = Lipophilicity, logD at pH 7.4; type: physicochemical; details: buffer
[3] = tested on: P-gp; assay: Apparent permeability from basolateral to apical side of the dog MDCK cells expressing Pgp transporter; type: ADME, cell-based, Canis lupus familiaris; details: MDCK-MDR1
[4] = target: Sodium-dependent dopamine transporter (Homo sapiens, UniProt Q01959); assay: Inhibition of [3H]WIN-35428 uptake in human DAT transfected HEK293 cells; type: cell-based
Sequence of Sodium-dependent dopamine transporter (Q01959 whole entry): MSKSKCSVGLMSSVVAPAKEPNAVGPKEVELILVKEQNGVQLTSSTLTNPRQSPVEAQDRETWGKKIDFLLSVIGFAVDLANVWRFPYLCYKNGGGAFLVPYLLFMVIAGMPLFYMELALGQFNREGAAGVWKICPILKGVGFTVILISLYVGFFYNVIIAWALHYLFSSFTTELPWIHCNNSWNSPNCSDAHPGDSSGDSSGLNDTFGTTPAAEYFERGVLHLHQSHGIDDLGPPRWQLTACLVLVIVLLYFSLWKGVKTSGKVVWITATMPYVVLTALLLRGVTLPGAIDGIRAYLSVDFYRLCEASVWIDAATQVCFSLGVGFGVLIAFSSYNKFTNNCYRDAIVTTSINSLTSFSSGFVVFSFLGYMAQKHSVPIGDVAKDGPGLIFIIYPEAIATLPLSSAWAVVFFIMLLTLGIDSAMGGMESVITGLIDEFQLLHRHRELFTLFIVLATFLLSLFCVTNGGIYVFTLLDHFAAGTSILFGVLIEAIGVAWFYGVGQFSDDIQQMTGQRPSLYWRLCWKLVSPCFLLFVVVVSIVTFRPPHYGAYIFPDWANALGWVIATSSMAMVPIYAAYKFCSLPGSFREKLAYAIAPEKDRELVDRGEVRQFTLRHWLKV

[5] = target: Sodium-dependent serotonin transporter (Homo sapiens, UniProt P31645); assay: Inhibition of [3H]Citalopram uptake in human 5HTT transfected HEK293 cells; type: cell-based
Sequence of Sodium-dependent serotonin transporter (P31645 whole entry): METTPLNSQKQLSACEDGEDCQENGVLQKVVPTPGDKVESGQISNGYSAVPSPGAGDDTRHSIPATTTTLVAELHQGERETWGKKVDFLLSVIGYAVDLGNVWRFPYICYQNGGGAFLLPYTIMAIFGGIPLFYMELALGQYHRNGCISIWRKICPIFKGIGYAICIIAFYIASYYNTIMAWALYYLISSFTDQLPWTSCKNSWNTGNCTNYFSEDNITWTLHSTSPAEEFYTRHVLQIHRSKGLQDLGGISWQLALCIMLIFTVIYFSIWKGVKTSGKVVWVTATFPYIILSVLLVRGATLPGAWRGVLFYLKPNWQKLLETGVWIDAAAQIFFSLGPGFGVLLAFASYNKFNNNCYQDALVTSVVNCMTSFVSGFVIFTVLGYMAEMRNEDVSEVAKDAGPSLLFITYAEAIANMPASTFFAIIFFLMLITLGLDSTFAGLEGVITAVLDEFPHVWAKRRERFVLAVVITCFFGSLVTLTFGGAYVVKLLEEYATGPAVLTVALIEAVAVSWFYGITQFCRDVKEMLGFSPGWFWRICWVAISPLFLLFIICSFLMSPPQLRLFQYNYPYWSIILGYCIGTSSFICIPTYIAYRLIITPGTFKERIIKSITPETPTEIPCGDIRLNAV

[6] = Metabolic stability assessed as intrinsic clearance in human liver microsome; type: ADME; details: liver microsomes
[7] = tested on: P-gp; assay: Apparent permeability from apical to basolateral side of the dog MDCK cells expressing P-gp transporter; type: ADME, cell-based, Canis lupus familiaris; details: MDCK-MDR1
[8] = target: Voltage-gated inwardly rectifying potassium channel KCNH2 (Homo sapiens, UniProt Q12809); assay: Displacement of [3H]dofetilide from human ERG channel
Sequence of Voltage-gated inwardly rectifying potassium channel KCNH2 (Q12809 whole entry): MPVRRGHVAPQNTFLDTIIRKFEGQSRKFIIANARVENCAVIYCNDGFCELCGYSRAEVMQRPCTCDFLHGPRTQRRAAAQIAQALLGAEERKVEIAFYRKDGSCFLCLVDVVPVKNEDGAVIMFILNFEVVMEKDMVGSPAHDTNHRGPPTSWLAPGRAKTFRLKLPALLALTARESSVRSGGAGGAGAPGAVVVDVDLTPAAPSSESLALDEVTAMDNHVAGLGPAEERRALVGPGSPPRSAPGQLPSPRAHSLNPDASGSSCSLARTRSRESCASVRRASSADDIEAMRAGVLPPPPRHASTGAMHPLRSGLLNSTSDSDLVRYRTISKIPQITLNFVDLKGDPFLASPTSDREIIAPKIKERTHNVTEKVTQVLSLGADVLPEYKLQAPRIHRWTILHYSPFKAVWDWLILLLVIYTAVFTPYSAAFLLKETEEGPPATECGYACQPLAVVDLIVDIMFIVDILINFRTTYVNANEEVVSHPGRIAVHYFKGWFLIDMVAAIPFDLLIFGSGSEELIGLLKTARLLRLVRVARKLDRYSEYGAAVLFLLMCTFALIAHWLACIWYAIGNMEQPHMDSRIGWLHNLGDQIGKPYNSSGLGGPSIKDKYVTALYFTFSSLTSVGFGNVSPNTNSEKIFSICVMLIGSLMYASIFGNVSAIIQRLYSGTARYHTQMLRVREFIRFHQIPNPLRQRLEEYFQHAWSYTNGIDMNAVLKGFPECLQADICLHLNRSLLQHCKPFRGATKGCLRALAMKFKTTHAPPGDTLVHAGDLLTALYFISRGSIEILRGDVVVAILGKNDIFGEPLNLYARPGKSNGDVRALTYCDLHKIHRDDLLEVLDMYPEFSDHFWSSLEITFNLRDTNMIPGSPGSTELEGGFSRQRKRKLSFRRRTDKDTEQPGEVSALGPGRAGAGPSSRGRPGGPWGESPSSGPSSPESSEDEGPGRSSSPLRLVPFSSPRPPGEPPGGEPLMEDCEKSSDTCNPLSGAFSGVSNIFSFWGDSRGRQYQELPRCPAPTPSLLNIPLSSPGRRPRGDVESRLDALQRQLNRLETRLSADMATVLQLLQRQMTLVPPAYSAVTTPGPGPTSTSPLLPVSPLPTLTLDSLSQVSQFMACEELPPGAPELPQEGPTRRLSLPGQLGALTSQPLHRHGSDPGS

[9] = target: T1, 5-hydroxytryptamine receptor 2C (Homo sapiens) (UniProt P28335); assay: Inhibition of 5HT2C receptor at 10 uM
T1 sequence (whole entry): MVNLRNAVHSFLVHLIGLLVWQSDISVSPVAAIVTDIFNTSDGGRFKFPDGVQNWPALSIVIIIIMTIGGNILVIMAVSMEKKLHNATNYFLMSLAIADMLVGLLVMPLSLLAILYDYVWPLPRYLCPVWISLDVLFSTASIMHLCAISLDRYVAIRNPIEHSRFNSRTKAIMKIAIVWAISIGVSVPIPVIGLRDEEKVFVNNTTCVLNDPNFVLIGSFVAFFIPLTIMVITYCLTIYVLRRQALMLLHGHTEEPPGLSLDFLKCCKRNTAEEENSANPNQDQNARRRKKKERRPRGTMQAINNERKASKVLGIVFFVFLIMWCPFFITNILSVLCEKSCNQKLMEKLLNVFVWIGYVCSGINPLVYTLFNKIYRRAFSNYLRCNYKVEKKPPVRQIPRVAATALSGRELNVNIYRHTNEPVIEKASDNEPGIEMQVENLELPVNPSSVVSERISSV

[10] = tested on: Rattus norvegicus; assay: Increase in noradrenaline level in interstitial fluid of conscious rat prefrontal cortex at 0.3 mg/kg, sc relative to baseline; type: functional; details: route subcutaneous
[11] = tested on: Hepatocyte; assay: Metabolic stability assessed as intrinsic clearance in human hepatocytes; type: ADME, cell-based, Liver
[12] = Apparent permeability from apical to basolateral side of the human CaCO2 membrane; type: ADME, cell-based; details: Caco-2
[13] = target: T2, Cytochrome P450 1A2 (Homo sapiens, UniProt P05177); assay: Inhibition of CYP1A2; type: ADME
T2 sequence (P05177 whole entry): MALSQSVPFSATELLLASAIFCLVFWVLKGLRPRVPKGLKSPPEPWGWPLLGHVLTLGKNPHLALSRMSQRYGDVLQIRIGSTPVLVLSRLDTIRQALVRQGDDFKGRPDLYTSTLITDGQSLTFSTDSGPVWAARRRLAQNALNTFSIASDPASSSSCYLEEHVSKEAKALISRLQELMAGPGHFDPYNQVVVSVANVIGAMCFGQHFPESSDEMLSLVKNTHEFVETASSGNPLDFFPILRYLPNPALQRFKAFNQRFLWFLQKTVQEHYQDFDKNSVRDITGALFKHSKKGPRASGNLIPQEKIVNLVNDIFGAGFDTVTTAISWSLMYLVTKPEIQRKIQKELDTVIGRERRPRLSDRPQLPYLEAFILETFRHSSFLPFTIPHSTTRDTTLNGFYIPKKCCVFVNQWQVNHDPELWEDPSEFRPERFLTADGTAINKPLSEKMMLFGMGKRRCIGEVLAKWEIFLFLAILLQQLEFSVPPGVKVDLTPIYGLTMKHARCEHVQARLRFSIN

[14] = target: Cytochrome P450 2D6 (Homo sapiens, UniProt P10635); assay: Inhibition of CYP2D6; type: ADME
Sequence of Cytochrome P450 2D6 (P10635 whole entry): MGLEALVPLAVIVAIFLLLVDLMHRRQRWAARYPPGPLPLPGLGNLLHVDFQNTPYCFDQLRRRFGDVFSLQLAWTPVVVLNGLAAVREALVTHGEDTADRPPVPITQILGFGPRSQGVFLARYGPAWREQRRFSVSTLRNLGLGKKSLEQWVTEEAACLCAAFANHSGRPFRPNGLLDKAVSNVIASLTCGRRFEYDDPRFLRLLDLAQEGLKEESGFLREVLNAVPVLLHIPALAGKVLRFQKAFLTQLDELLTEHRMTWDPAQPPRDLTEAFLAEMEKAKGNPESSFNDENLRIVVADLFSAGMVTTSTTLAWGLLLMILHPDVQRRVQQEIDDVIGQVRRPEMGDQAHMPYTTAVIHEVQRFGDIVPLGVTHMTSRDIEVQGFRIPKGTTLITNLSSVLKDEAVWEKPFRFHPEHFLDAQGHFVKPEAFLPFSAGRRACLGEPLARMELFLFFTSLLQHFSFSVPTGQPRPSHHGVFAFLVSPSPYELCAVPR

[15] = Binding affinity to calcium channel L-type at diltiazem site
[16] = Displacement of [3H]noradrenaline from rat noradrenaline transporter expressed in HEK293 cells; type: cell-based
[17] = Half life in human liver microsome; type: ADME; details: liver microsomes
[18] = target: Cytochrome P450 3A4 (Homo sapiens, UniProt P08684); assay: Inhibition of CYP3A4; type: ADME
Sequence of Cytochrome P450 3A4 (P08684 whole entry): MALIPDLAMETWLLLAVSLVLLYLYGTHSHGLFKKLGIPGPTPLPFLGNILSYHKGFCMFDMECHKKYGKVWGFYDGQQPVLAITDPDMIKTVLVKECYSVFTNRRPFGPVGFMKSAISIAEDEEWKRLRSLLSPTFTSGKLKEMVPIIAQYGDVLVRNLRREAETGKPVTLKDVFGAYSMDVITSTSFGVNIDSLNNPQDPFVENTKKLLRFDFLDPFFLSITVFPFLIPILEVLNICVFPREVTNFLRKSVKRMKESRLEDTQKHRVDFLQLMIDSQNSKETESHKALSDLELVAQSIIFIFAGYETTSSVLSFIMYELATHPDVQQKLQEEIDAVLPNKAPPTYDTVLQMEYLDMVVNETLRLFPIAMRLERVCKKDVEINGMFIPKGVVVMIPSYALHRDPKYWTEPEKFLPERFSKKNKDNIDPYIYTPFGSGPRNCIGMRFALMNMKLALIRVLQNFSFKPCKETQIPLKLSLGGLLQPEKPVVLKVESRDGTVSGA

[19] = target: Kappa-type opioid receptor (Homo sapiens) (UniProt P41145); assay: Inhibition of kappa opioid receptor at 10 uM
Sequence of Kappa-type opioid receptor (Homo sapiens) (P41145 whole entry): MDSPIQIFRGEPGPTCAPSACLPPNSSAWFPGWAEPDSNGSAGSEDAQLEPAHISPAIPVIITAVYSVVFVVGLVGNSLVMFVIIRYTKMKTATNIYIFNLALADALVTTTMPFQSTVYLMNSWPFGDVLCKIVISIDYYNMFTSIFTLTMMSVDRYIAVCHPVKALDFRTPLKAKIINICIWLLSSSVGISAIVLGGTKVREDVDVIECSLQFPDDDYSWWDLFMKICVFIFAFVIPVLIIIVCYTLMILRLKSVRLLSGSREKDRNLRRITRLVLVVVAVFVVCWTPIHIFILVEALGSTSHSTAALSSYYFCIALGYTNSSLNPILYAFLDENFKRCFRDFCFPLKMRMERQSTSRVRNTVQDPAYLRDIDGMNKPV

[20] = Apparent permeability from basolateral to apical side of the human CaCO2 membrane; type: ADME, cell-based; details: Caco-2
[21] = Dissociation constant, pKa of the compound; type: physicochemical
[22] = target: Mu-type opioid receptor (Homo sapiens) (UniProt P35372); assay: Inhibition of mu opioid receptor at 10 uM
Sequence of Mu-type opioid receptor (Homo sapiens) (P35372 whole entry): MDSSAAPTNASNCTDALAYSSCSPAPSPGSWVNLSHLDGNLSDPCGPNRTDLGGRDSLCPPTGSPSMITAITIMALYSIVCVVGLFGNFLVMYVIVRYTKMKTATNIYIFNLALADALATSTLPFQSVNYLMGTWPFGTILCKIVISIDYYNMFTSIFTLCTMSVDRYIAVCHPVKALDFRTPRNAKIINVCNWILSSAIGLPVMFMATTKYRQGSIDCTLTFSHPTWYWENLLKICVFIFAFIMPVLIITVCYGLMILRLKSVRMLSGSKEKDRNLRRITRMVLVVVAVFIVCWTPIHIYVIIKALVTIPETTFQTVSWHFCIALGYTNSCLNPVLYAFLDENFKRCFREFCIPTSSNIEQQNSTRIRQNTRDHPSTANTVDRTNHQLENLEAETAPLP

[23] = Binding affinity to sodium channel site 2
[24] = Lipophilicity, logP of the compound; type: physicochemical; details: octanol/water

Sequence of Sodium-dependent noradrenaline transporter (P23975 whole entry): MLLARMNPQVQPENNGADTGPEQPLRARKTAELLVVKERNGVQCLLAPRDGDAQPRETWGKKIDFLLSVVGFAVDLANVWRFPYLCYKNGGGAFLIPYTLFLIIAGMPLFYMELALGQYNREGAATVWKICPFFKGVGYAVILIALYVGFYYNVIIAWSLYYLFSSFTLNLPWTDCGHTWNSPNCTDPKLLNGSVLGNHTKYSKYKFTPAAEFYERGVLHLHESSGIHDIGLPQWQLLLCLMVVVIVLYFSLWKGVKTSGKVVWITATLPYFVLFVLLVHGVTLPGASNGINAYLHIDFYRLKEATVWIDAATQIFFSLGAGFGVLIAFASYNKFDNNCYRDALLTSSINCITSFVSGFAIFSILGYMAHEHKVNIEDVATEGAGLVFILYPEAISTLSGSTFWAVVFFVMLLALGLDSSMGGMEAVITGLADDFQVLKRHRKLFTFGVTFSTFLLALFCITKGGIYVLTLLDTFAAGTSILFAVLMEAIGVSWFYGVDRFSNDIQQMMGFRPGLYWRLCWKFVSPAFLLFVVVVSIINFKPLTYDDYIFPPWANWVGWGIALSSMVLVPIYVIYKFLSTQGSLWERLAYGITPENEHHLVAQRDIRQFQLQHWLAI

`Cc1cc(Oc2ccccc2C(C)C)c(CN(C)C)cn1` gave a Ki [1] of 13 nM, a logD [2] of 2.5 and a Papp B→A [3] of 39 ×10⁻⁶ cm/s. The Ki [4] was 2880 nM, the Ki [5] was 1470 nM and the microsomal CLint [6] was 17 µL/min/mg. For the same compound, the Papp A→B [7] was 38 ×10⁻⁶ cm/s.
Work on `Cc1cc(Oc2ccccc2C)c(CN(C)C)cn1` yielded a Ki [1] of 194 nM, a Ki [4] of 1410 nM and a Ki [5] of 235 nM.
`CCc1cc(Cl)ccc1Oc1cc(C)ncc1CNC` gave a Ki [1] of 74 nM, a Ki [4] of 4350 nM and a Ki [5] of 18 nM.
In the case of `CCc1cc(Cl)ccc1Oc1cc(C)ncc1CN(C)C`, the Ki [1] is reported as 22 nM and the Ki [5] is reported as 13 nM.
In the case of `CCCc1ccccc1Oc1cc(C)ncc1CNC`, the Ki [1] is reported as 438 nM, the Ki [4] is reported as 1980 nM and the Ki [5] is reported as 821 nM.
For `CNCc1cnc(C)cc1Oc1ccccc1OC`, the Ki [1] was 921 nM, the Ki [4] was 4800 nM and the Ki [5] was 265 nM.
Compound `CCCc1ccccc1Oc1cc(C)ncc1CN(C)C` has a Ki [1] of 159 nM, a Ki [4] of 2250 nM and a Ki [5] of 2820 nM.
For `CCOc1ccccc1Oc1cc(C)ncc1CNC`, the Ki [1] was 461 nM, the Ki [4] was 2390 nM and the Ki [5] was 218 nM.
Compound `CNCc1cnc(C)cc1Oc1ccccc1C(C)C` has a Ki [1] of 82 nM, a Ki [4] of 2130 nM and a Ki [5] of 1980 nM.
Work on `CCc1ccccc1Oc1cc(C)ncc1CN(C)C` yielded a Ki [1] of 27 nM, a logD [2] of 2.1 and a Ki [4] of 2660 nM. The IC50 [8] was over 20000 nM, the Ki [5] was 279 nM and the microsomal CLint [6] was under 7 µL/min/mg.
In the case of `CCOc1ccccc1Oc1cc(C)ncc1CN(C)C`, the Ki [4] is reported as 2150 nM and the Ki [5] is reported as 4750 nM.
Work on `CCc1ccccc1Oc1cc(C)ncc1CNC` yielded a Ki [1] of 366 nM, a Ki [4] of 2280 nM and a Ki [5] of 440 nM.
`Cc1cc(Oc2ccccc2Cl)c(CN(C)C)cn1` gave a Ki [1] of 131 nM, a Ki [4] of 1160 nM and a Ki [5] of 242 nM.
`CNCc1cnc(C)cc1Oc1ccccc1Oc1ccccc1` showed an inhibition [9] of over 80%, a Ki [1] of 10 nM and an Activity [10] of 400%. It also gave a logD [2] of 1.6, a CL [11] of 8 µL/min/mg and a Papp A→B [12] of 11 ×10⁻⁶ cm/s. For the same compound, the IC50 [13] was over 3000 nM, the Papp B→A [3] was 41 ×10⁻⁶ cm/s and the Ki [4] was 1910 nM. For the same compound, the IC50 [14] was 3400 nM, the Ki [15] was 1200 nM and the Ki [8] was 5800 nM. It also gave an IC50 [16] of 2.5 nM, a half-life [17] of over 2 h and an IC50 [18] of over 3000 nM. It also gave an inhibition [19] of over 80%, a Papp B→A [20] of 19 ×10⁻⁶ cm/s and a pKa [21] of 4.4. For the same compound, the Ki [5] was 823 nM, the microsomal CLint [6] was under 7 µL/min/mg and the Papp A→B [7] was 25 ×10⁻⁶ cm/s. For the same compound, the inhibition [22] was over 80%, the Ki [23] was 3400 nM and the logP [24] was 4.4.
`CNCc1cnc(C)cc1Oc1ccccc1C` showed a Ki [1] of 951 nM, a Ki [4] of 1520 nM and a Ki [5] of 136 nM.
`Cc1cc(Oc2ccccc2Oc2ccccc2)c(CN(C)C)cn1` gave a Ki [1] of 10 nM, a logD [2] of 2.4 and a Papp B→A [3] of 36 ×10⁻⁶ cm/s. The Ki [4] was 2640 nM, the IC50 [14] was 610 nM and the pKa [21] was 4.4. It also gave a Ki [5] of 4060 nM, a microsomal CLint [6] of 29 µL/min/mg and a Papp A→B [7] of 41 ×10⁻⁶ cm/s.
`CNCc1cnc(C)cc1Oc1ccccc1SC` gave a Ki [1] of 232 nM, a Ki [4] of 1750 nM and a Ki [5] of 133 nM.
`COc1ccccc1Oc1cc(C)ncc1CN(C)C` gave a Ki [1] of 296 nM, a Ki [4] of 4060 nM and a Ki [5] of 1420 nM.
For `CNCc1cnc(C)cc1Oc1ccccc1Cl`, the Ki [1] was 255 nM, the Ki [4] was 834 nM and the Ki [5] was 88 nM.
In the case of `CSc1ccccc1Oc1cc(C)ncc1CN(C)C`, the Ki [1] is reported as 58 nM, the Ki [4] is reported as 1930 nM and the Ki [5] is reported as 384 nM.
